# Measured values published in US6537577B1, “Method of prophylaxis for bovine mastitis” (Bio Medical Development Corporation, priority 2001, dated 2003).
# Several values for one entry are separate records, joined by “and”; a condition that tells them apart may be missing. Identical values can stand only once.
# Tests used:
# Staph. aureus ATCC 29740 [1] = experiment: Excised teat study, Trial 1; format: cell-based, Staphylococcus aureus
# Procedure: (§1) Teats were prepared as described earlier. The pathogen strains that were used for this study were Staph. aureus ATCC 29740 and Strep. Agalactiae ATCC 27956. A culture of Strep. Agalactiae was prepared by thawing a frozen vial of Strep. Agalactiae and plating on a TSA blood plate. After 24 hours incubation at 37° C., five 6-ml tubes of TSB were inoculated with approximately six colonies of Strep. Agalactiae each. These cultures were incubated at 37° C. for approximately 16 hours and then used to inoculate 250 ml of TSB. This culture was incubated on a gyratory shaker for approximately 5.5 hours. Serial dilutions were prepared in proteose peptone, and 0.1 ml was plated on TSA. Plates were incubated for 24 hours at 37° C. and colonies were counted to determine the microbial concentration of the stock suspension.
# (§2) The dilution required to prepare a challenge inoculum of approximately 1×10^8 colony-forming units (cfu)/ml of Staph. aureus or Strep. […] Challenge suspensions of Staph. aureus and Strep. Agalactiae containing approximately 1×10^8 cfu/ml of each organism (diluted with pasteurized milk) were prepared and used for the excised teat trials. The quenching solution was letheen broth (Difco Laboratories) modified to contain 1% sodium thiosulfate (Sigma Chemical Co., St. Louis, Mo.).
# (§3) Agalactiae, respectively. […] Teats were dipped in the bacterial challenge suspensions once to a depth of approximately 15 mm and allowed to drain for 5 minutes, then dipped with the test products to a depth of approximately 30 mm and drained for an additional 10 minutes. For the challenged, but undipped negative control teats, the drainage time was 15 minutes. […] This coating film peeling from each teat was placed in sterile blood dilution vials (Baxter Diagnostics). Remaining organisms on teat skin were then removed by rinsing each teat with approximately 5 ml of quencher expressed from a polyethylene wash bottle into the same vial containing the coating film peeling. Each vial was vortexed for 5 seconds before plating.
# (§4) For all three trials, serial dilutions of peelings or rinses were made in 0.1% proteose peptone, and platinf was in 0.1-ml aliquots on Mannitol Salt agar (Becton Dickinson) for Staph. aureus and TKT/FC agar (Bccton Dickinson) with 0.3% thallium acetate (Sigma Chemical Co.) for Strep. Agalactiae. […] Plates were incubated for 24 hours at 37° C. and colonies were counted. The geometric mean count of the plates was determined, multiplied by […] to express the total volume of rinse, and then multiplied by the dilution factor to yield the total cfu per teat. In cases in which no organisms were recovered from a teat, the value of 0.01 was substituted fro zero in order statistically determine the mean cfu counts.
# (§5) The same set of teats was used for each trial. […]
# Staph. aureus ATCC 29740 [2] = experiment: Excised teat study, preliminary trial; format: cell-based, Staphylococcus aureus; settings: for colony count per plate: plates 1-2, count no. 1 and 2
# Source text: To evaluate the microbicidal activity of the compositions of EXAMPLE 1 and EXAMPLE 2, basic excised teat models used for these experiments are based on providing procedures by Twomey, A, and M. A Arnold, National Dairy Lab. Report, Ruaburn Agric. Res. Center, Hamilton, New Zealand.
# Excess skin and tissue were trimmed, teats were washed in a mild detergent and warm water, rinsed in water, dried, and dipped in 70% ethyl alcohol. Teats were placed in plastic bags in a glycerin and water solution, and subsequently frozen at −20° C. until further use. Frozen teats were thawed in warm water, rinsed in water, dried, and dipped in 70% ethyl alcohol, dried with paper towels, and suspended by metal clips from a glass rod.
# The pathogen strain that was used for this study was Staph. aureus ATCC 29740. For preparation of Staph. aureus, five 6-ml tubes of trypticase soy broth (TSB) (Becton Dickinson, Cockeysville, Md.) were inoculated from a culture of Staph. aureus actively growing on trypticase soy agar (TSA) (Becton Dickinson) containing 5% bovine calf blood. These tubes were incubated for 5 to 7 hours at 37° C., and this culture was used to inoculate 250 ml of TSB, which was incubated on a gyratory shaker for 16 hours. After incubation, bacterial cells were pelleted by centrifugation at approximately 7000×g, washed twice in 0.1% proteose peptone (Difco Laboratories, Detroit, Mich.), and resuspended to approximately 200 ml in proteose peptone. Serial dilutions were prepared in proteose peptone, and 0.1 ml was plated on TSA. Plates, were incubated for 24 hours at 37° C. and colonies were counted to determine the microbial concentration of the stock suspension.
# Challenge suspensions of Staph. aureus containing approximately 1×10^8 cfu/ml of each organism (diluted with pasteurized milk) were prepared and used for the excised teat trials. The quenching solution was letheen broth (Difco Laboratories) modified to contain 1% sodium thiosulfate (Sigma Chemical Co., St. Louis, Mo.).
# Teats were dipped in a Staph. aereus bacterial suspension to a depth of 15 mm and allowed to drain for 5 minutes. Teats were then dipped into two coating formulations of EXAMPLE 1 and EXAMPLE 2, (Formula No. 3 and Formula No. 5, respectively) to a depth of approximately 30 mm and allowed to drain for 10 minutes. […] The coating was then removed from each teat using a sterile cotton swab by rolling the edge of the softened film using a downward motion toward the teat apex, placed in 5 ml of quencher in sterile blood dilution vials (Baxter Diagnostics, McGaw Park, Ill.), mixed by vortexing for 5 seconds, and after serial dilution, a 0.1-ml aliquot was plated onto TSA. The quenching solution (Bacto-Letheen Broth) was used to inactivate the chlorhexidine germicide and prevent further bacterial killing upon culture. Immediately after the dried coating products were removed from the teats, each teat was rinsed to a total volume of 5 ml of quencher, the rinse collected in sterile blood dilution vials (Baxter Diagnostics) separate from the peelings, mixed by vortexing for 5 seconds, and after serial dilution, a 0.1-ml aliquot was plated to determine the number of organisms remaining on the teat after removal of the coating.
# [3] = tested on: Strep. Agalactiae ATCC 27956; experiment: Excised teat study, Trial 2; format: cell-based, Streptococcus agalactiae
# Procedure: as §1, §2, §3, §4, §5
# [4] = log of total organisms recovered
# [5] = of plate counts at the treatment's dilution
# [6] = peeling and rinse combined, total cfu per teat
smiles,measurement,setting,value
"CC(=O)O [2.5% acetic acid, acetic acid]",Log,Staph. aureus ATCC 29740 [1]; [4],6.66
same,Geometric Mean,Staph. aureus ATCC 29740 [1]; [5],92.41
same,Total organisms Recovered,Staph. aureus ATCC 29740 [1]; [6],"4,620,500"
same,Log reduction,Staph. aureus ATCC 29740 [1]; versus negative control,0.76
same,Total organisms Recovered,Staph. aureus ATCC 29740 [2],"16,029,000"
same,colony count per plate,Staph. aureus ATCC 29740 [2]; Dilution −3,TNTC^1 and TNTC
same,colony count per plate,Staph. aureus ATCC 29740 [2]; Dilution −4,327 and 268 and 460 and 262
same,Log,Staph. aureus ATCC 29740 [2]; [4],7.20
same,Geometric Mean,"Staph. aureus ATCC 29740 [2]; of plate counts, dilution −4",320.58^3
same,Log reduction,Staph. aureus ATCC 29740 [2]; versus negative control,0.44
same,Log,[3]; [4],6.11
same,Geometric Mean,[3]; [5],25.98
same,Total organisms Recovered,[3]; [6],"1,299,000"
same,Log reduction,[3]; versus negative control,0.93
